The text below walks through data of ChEMBL document CHEMBL1145349, “Discovery of 3-hydroxy-4-carboxyalkylamidino-5-arylamino-isothiazoles as potent MEK1 inhibitors” (Bioorg Med Chem Lett, 2006).

For the test, the target named is Dual specificity mitogen-activated protein kinase kinase 1 (Homo sapiens, UniProt Q02750). The test is described as follows: Inhibition of MEK1.

Each structure is given as a SMILES string.

Dual specificity mitogen-activated protein kinase kinase 1, sequence (Q02750 whole entry): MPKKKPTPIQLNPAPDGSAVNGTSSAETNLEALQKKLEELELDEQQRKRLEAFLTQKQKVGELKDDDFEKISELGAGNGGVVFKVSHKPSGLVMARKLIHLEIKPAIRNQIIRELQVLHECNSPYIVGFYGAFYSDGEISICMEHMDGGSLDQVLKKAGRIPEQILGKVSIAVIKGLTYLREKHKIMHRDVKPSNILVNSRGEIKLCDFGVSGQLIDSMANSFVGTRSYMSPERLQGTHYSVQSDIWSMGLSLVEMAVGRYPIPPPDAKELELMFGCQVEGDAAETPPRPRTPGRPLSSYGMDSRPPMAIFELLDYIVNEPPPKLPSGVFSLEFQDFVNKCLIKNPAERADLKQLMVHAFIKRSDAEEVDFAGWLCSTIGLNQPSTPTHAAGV

As for `COc1cc(Nc2snc(O)c2-c2nn[nH]n2)cc(OC)c1`, the IC50 was above 2 µM.
The compound `COc1ccc(Nc2snc(O)c2C#N)cc1` displayed an IC50 above 5 µM.
With `N#Cc1c(O)nsc1N1CCCCC1`, the half-inhibitory concentration (IC50) was above 5 µM.
`Cc1ccc(Nc2snc(O)c2C(=N)NN2CCCCC2)cc1` gave an IC50 above 2 µM.
In turn, `N#Cc1c(O)nsc1Oc1ccc(Oc2ccccc2)cc1` gave an IC50 above 5 µM.
Consider `N#Cc1c(O)nsc1Nc1ccccc1[N+](=O)[O-]`, for which the half-inhibitory concentration (IC50) was above 5 µM.
In turn, `Cc1cccc(Nc2s[nH]c(=O)c2C#N)c1` gave an IC50 above 5 µM.
Compound `N#Cc1c(NCC2CCCCC2)s[nH]c1=O` came in with a concentration for half-maximal inhibition (IC50) above 5 µM.
In turn, `CCCCNc1snc(O)c1C#N` had an IC50 above 5 µM.
The compound `CC(C)c1ccc(Sc2snc(O)c2C#N)cc1` displayed an IC50 above 5 µM.
As for `N#Cc1c(O)nsc1NCCCN1CCOCC1`, the half-inhibitory concentration (IC50) was above 5 µM.
As to `Cc1ccc(Nc2snc(O)c2/C(N)=N/O)cc1`, the IC50 was above 2 µM.
On to `N#Cc1c(O)nsc1NCCc1ccc(O)cc1`, for which the 50% inhibitory concentration (IC50) is above 5 µM.
Next, `COC(=O)c1cccc(Nc2s[nH]c(=O)c2C#N)c1`: above 5 µM; `N#Cc1c(O)nsc1Nc1ccccc1C(F)(F)F`: above 5 µM.
The compound `COCCCNc1snc(O)c1C#N` had an IC50 above 5 µM.
On to `N#Cc1c(O)nsc1NCCc1ccccc1`, for which the IC50 is above 5 µM.
Next, `N#Cc1c(O)nsc1Nc1ccc([N+](=O)[O-])cc1`: above 5 µM; `N#Cc1c(O)nsc1Nc1ccc(Cl)cc1`: 0.41 µM.
As to `N#Cc1c(O)nsc1NCCc1cccs1`, the IC50 is above 5 µM.
Take `Cc1ccc(Nc2snc(O)c2C#N)cc1`: the concentration for half-maximal inhibition (IC50) is above 5 µM.
As for `N#Cc1c(O)nsc1Nc1cccnc1`, the half-maximal inhibitory concentration (IC50) was above 5 µM.
`Cn1sc(Nc2ccccc2)c(C#N)c1=O` had an IC50 above 5 µM.
In turn, `COc1ccccc1Nc1snc(O)c1C#N` gave an IC50 above 5 µM.
Compound `CC(C)Nc1snc(O)c1C#N` registered a 50% inhibitory concentration (IC50) above 5 µM.
As to `N#Cc1c(O)nsc1Nc1ccccc1`, the IC50 was 7 µM.
Next, `COc1cccc(Nc2snc(O)c2C#N)c1`: above 5 µM; `N#Cc1c(O)nsc1Nc1cccc([N+](=O)[O-])c1`: above 5 µM.
`Cc1ccccc1Nc1snc(O)c1C#N` came in with a concentration for half-maximal inhibition (IC50) above 5 µM.
Take `COc1nsc(Nc2ccccc2)c1C#N`: the IC50 is above 5 µM.
In the case of `N#Cc1ccc(Nc2s[nH]c(=O)c2C#N)cc1`, the 50% inhibitory concentration (IC50) was above 5 µM.
Regarding `CC(Nc1snc(O)c1C#N)c1ccccc1` (configuration not stated), the IC50 was above 5 µM.

What is called IC50 is the concentration needed to halve the response being measured. Low values mean greater potency, high ones weaker potency.
